Legend:
IRAK4 kinase = molecular target: T1, IRAK4 kinase (Homo sapiens, UniProt Q9NWZ3); assay: IRAK4 kinase activity test (KinEASE-STK S1 HTRF kit); format: biochemical; settings: 2.5 nM kinase, 1 μM biotinylated polypeptide substrate, 7 μM ATP, 37° C. 120 min
T1 sequence (Q9NWZ3 1-460): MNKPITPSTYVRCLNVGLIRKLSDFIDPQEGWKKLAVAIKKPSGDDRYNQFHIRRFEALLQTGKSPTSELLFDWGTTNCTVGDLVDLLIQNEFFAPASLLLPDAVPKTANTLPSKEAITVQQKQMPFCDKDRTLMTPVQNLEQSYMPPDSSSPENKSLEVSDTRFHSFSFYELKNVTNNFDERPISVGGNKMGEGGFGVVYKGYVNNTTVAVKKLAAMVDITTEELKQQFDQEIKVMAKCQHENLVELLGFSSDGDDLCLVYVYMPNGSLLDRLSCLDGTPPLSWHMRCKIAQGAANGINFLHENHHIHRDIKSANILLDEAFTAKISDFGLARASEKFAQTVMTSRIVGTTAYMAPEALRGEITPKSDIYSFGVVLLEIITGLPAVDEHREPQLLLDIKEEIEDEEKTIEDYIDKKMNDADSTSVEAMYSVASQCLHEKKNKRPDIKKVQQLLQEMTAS
Procedure, shortened: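 Compound in DMSO, serially diluted to 10000–0.038 nM final, incubated with 2.5 nM kinase, 1 μM biotinylated peptide substrate and 7 μM ATP at 37° C for 120 min. Eu-anti-phospho-Ser/Thr antibody plus streptavidin-XL665 stopped the reaction (1 h RT). HTRF 665/620 nm ratio gave % inhibition versus control; IC50 from nonlinear log-concentration fit.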

[1] = molecular target: T2, IRAK4 protein in THP-1 cells (Homo sapiens, UniProt Q9NWZ3); assay: Degradation of IRAK4 in THP-1 cells (Western blot); format: cell-based; settings: 24 hours, compound 1-3000 nM
T2 construct: endogenous in cells; host or cells: THP-1
T2 sequence (Q9NWZ3 1-460): T1 sequence (Q9NWZ3 1-460)
Procedure, shortened: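 THP-1 cells (5×10^5/well) treated 24 h with compound at 1–3000 nM final. IRAK4 in lysates quantified by Western blot, normalized to internal reference and compared with control to give degradation rate; DC50 and Dmax from nonlinear fit of log concentration.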

| SMILES | IC50 (IRAK4 kinase) [nM] | DC50 [1] [nM] | Dmax [1] [%] |
| --- | --- | --- | --- |
| CC(C)(O)c1cc2nn(C3CCN(CC4CCC5(CC4)CCN(C(=O)c4ccc(F)c(N6CCC(=O)NC6=O)c4)CC5)CC3)cc2cc1NC(=O)c1cccc(C(F)(F)F)n1 [Example 45, N-(2-(1-((3-(3-(2,4-dioxotetrahydro-pyrimidin-1 (2H)-yl)-4-fluoro-benzoyl)-3-azaspiro[5.5]undec-9-yl)methyl)piperidin-4-yl)-6-(2-hydroxyprop-2-yl)-2H-indazol-5-yl)-6-(trifluoro-methyl) pyridinecarbox-amide] | 23.5 | 1.9 | 98.2 |
| COc1cc2nn(C3CCN(CCC4CCC5(CC4)CCN(C(=O)c4ccc(F)c(N6CCC(=O)NC6=O)c4)CC5)CC3)cc2cc1NC(=O)c1cccc(C(F)(F)F)n1 [Example 46, N-(2-(1-(2-(3-(3-(2,4-dioxotetrahydro-pyrimidin-1 (2H)-yl)-4-fluoro-benzoyl)-3-azaspiro[5.5]undec-9-yl)ethyl)piperidin-4-yl)-6-methoxy-2H-indazol-5-yl)-6-(tri-fluoromethyl) pyridinecarbox-amide] | 43.1 | 4 | 97.8 |
| COc1cc2nn(C3CCN(CCC4CCC5(CC4)CCN(C(=O)c4cccc(N6CCC(=O)NC6=O)c4)CC5)CC3)cc2cc1NC(=O)c1cccc(C(F)(F)F)n1 [Example 47, N-(2-(1-(2-(3-(3-(2,4-dioxotetrahydro-pyrimidin-1 (2H)-yl)benzoyl)-3-azaspiro[5.5]undec-9-yl)ethyl)piperidin-4-yl)-6-methoxy-2H-in-dazol-5-yl)-6-(tri-fluoromethyl) pyridinecarbox-amide] | 34.2 | 5.4 | 98.3 |
| COc1cc2nn(C3CCN(CCC4CCC5(CC4)CCN(C(=O)c4ccc(Cl)c(N6CCC(=O)NC6=O)c4)CC5)CC3)cc2cc1NC(=O)c1cccc(C(F)(F)F)n1 [Example 48, N-(2-(1-(2-(3-(4-chloro-3-(2,4-dioxotetrahydro-pyrimidin-1 (2H)-yl)benzoyl)-3-azaspiro[5.5]undec-9-yl)ethyl)piperidin-4-yl)-6-methoxy-2H-in-dazol-5-yl)-6-(tri-fluoromethyl) pyridinecarbox-amide] | 61.8 | 6 | 98 |
| COc1cc2nn([C@H]3CC[C@H](CN(C)CC4CCN(C(=O)c5ccc(Cl)c(N6CCC(=O)NC6=O)c5)CC4)CC3)cc2cc1NC(=O)c1cccc(C(F)(F)F)n1 [Example 51, N-(2-((1r,4r)-4-((((1-(4-chloro-3-(2,4-dioxotetrahydro-pyrimidin-1 (2H)-yl)benzoyl)piperdin-4-yl)methyl) (methyl)amino)methyl)cyclohexyl)-6-methoxy-2H-inda-zol-5-yl)-6-(tri-fluoromethyl) pyridinecarbox-amide] | 11.3 | 27.5 | 95.4 |
| COc1cc2nn([C@H]3CC[C@H](COCCC4CCN(C(=O)c5ccc(Cl)c(N6CCC(=O)NC6=O)c5)CC4)CC3)cc2cc1NC(=O)c1cccc(C(F)(F)F)n1 [Example 64, N-(2-((1r,4r)-4-((2-(1-(4-chloro-3-(2,4-dioxotetrahydro-pyrimidin-1 (2H)-yl)benzoyl)piperidin-4-yl)ethoxy)methyl)cyclohexyl)-6-methoxy-2H-indazol-5-yl)-6-(trifluoro-methyl) pyridinecarbox-amide] | 48 | 13.9 | 95.6 |
| O=C1CCN(c2cc(C(=O)N3CCC4(CCC(CN5CCC(n6cc7cc(NC(=O)c8cccc(C(F)(F)F)n8)c(OC(F)F)cc7n6)CC5)CC4)CC3)ccc2Cl)C(=O)N1 [Example 66] | 21.4 | 16.1 | 95.3 |
| CC(C)(C)C(=O)OCN1C(=O)CCN(c2cc(C(=O)N3CCC4(CCC(CCN5CCC(n6cc7cc(NC(=O)c8cccc(C(F)(F)F)n8)c(C(C)(C)O)cc7n6)CC5)CC4)CC3)ccc2Cl)C1=O [Example 71, methyl (3-(2-chloro-5-(9-(2-(4-(6-(2-hydroxyprop-2-yl)-5-(6-(trifluoromethyl)pyridinecarboxamido)-2H-indazol-2-yl)piperidin-1-yl)ethyl)-3-azaspiro[5.5]undecyl-3-carbonyl)phenyl)-2,6-dioxotetrahydropyrimidin-1 (2H)-yl) pivalate] | 114 | 3.7 | 97 |

These reach a lower IC50 (IRAK4 kinase). Values come first.

| IC50 (IRAK4 kinase) [nM] | DC50 [1] [nM] | Dmax [1] [%] | SMILES |
| --- | --- | --- | --- |
| 7.2 | 5.6 | 97 | COc1cc2nn([C@H]3CC[C@H](CN4CCC5(CC4)CCN(C(=O)c4ccc(Cl)c(N6CCC(=O)NC6=O)c4)CC5)CC3)cc2cc1NC(=O)c1cccc(C(F)(F)F)n1 [Example 50, N-(2-((1r,4r)-4-((9-(4-chloro-3-(2,4-dioxotetrahydropyrim-idin-1 (2H)-yl)benzoyl)-3,9-diazaspiro[5.5]undec-3-yl)methyl)cyclohexyl)-6-methoxy-2H-inda-zol-5-yl)-6-(tri-fluoromethyl) pyridinecarbox-amide] |
| 4.3 | 7.6 | 92.1 | COc1cc2nn([C@H]3CC[C@H](N4CCC5(CCN(C(=O)c6ccc(Cl)c(N7CCC(=O)NC7=O)c6)CC5)CC4)CC3)cc2cc1NC(=O)c1cccc(C(F)(F)F)n1 [Example 58, N-(2-((1r,4r)-4-(9-(4-chloro-3-(2,4-dioxotetrahydro-pyrimidin-1 (2H)-yl)benzoyl)-3,9-diazaspiro[5.5]undec-3-yl)cyclohexyl)-6-methoxy-2H-inda-zol-5-yl)-6-(triflu-oromethyl) pyridinecarbox-amide] |
| 6.43 | 5.1 | 93.2 | CCN(C1CCC2(CC1)CCN(C(=O)c1ccc(Cl)c(N3CCC(=O)NC3=O)c1)CC2)[C@H]1CC[C@H](n2cc3cc(NC(=O)c4cccc(C(F)(F)F)n4)c(OC)cc3n2)CC1 [Example 60] |
| 6.9 | 5.6 | 92.3 | CN(CC1CCN(C(=O)c2ccc(Cl)c(N3CCC(=O)NC3=O)c2)CC1)C[C@H]1CC[C@H](n2cc3cc(NC(=O)c4cccc(C(F)(F)F)n4)c(C(C)(C)O)cc3n2)CC1 [Example 62] |
| 1.6 | 13.4 | 98.3 | COc1cc2nn([C@H]3CC[C@H](CN(C)C4CCN(C5CCN(C(=O)c6ccc(Cl)c(N7CCC(=O)NC7=O)c6)CC5)CC4)CC3)cc2cc1NC(=O)c1cccc(C(F)(F)F)n1 [Example 65, N-(2-((1r,4r)-4-(((1′-(4-chloro-3-(2,4-dioxotetrahydro-pyrimidin-1 (2H)-yl)benzoyl)-[1,4′-bi-piperidin]-4-yl) (methyl)amino)methyl)cyclohexyl)-6-methoxy-2H-indazol-5-yl)-6-(trifluoro-methyl) pyridinecarbox-amide] |
| 5.13 | 11.5 | 99.2 | COc1cc2nn([C@H]3CC[C@H](CN(C)CCCCC4CCN(C(=O)c5ccc(Cl)c(N6CCC(=O)NC6=O)c5)CC4)CC3)cc2cc1NC(=O)c1cccc(C(F)(F)F)n1 [Example 67, N-(2-((1r,4r)-4-(((4-(1-(4-chloro-3-(2,4-dioxotetrahydro-pyrimidin-1 (2H)-yl)benzoyl)piperidin-4-yl)butyl) (methyl)amino)methyl)cyclohexyl)-6-methoxy-2H-indazol-5-yl)-6-(trifluoro-methyl) pyridinecarbox-amide] |

— US20230234936A1, “COMPOUND FOR TARGETING AND DEGRADING PROTEIN, AND PREPARATION METHOD THEREFOR AND USE THEREOF” (SHANGHAI LEADINGTAC PHARMACEUTICAL CO., LTD., priority 2020, published 2023)
